Assay results as given in patent US6046218A, “Pyridine derivative and medicament containing the same as an effective ingredient” (SS Pharmaceutical Co., Ltd., priority 1996, dated 2000).
Structures can show the parent of a compound that is named as a salt.

Columns and labels:
IL-4 production = assay: Test 2: inhibition of IL-4 production in human T-cell strain ATL-16T(-) stimulated with PMA (Bio Source EIA); format: cell-based; conditions: ATL-16T(-) 5×10^5 cells/0.5 ml/well, 20 nM PMA, 48 hours, read-out: Inhibition rate of IL-4 production; for inhibition at 10 µM: 10^-5 M; for inhibition at 1 µM: 10^-6 M; for inhibition at 0.1 µM: 10^-7 M; for inhibition at 0.01 µM: 10^-8 M
Outline: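 ATL-16T(-) cells at 5×10^5 cells/0.5 ml/well (n=3) stimulated with 20 nM PMA alongside compound, incubated 48 h at 37 °C, 5% CO2. Supernatant IL-4 measured by EIA and inhibition rate calculated.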

IL-5 production = assay: Test 3: inhibition of IL-5 production in human PBMC stimulated with ConA; format: cell-based; conditions: 10^-6 M, 10 μg/ml ConA, 48 hours, read-out: Inhibition rate of IL-5 production
Outline: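 Human PBMC from a normal volunteer, 1×10^6 cells/ml in AIM-V, stimulated with 10 μg/ml ConA alongside compound and incubated 48 h at 37 °C, 5% CO2. Supernatant IL-5 quantified by EIA; inhibition rate calculated from a formula.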

IgE production = assay: Test 4: inhibition of IgE production by spleen cells of orally treated sensitized mice; format: in vivo, Balb/c mouse; conditions: Mus musculus, po, 100 mg/kg orally once a day, Day 1 to Day 10, DNP-BSA 5 μg/ml, 24 hours, read-out: Inhibition rate of IgE production
Procedure: (§1) Test 4: Test on the inhibition of IgE production
(§2) To a Balb/c mouse, the DNP-labeled ascaris antigen (5 μg) and Alum (1 mg) were intraperitoneally administered on Day 1 and Day 6 to sensitize the mouse with the antibody. From Day 1 to Day 10, a medicament was orally administered at a dose of 100 mg/kg once a day. On Day 11, the mouse was subjected to splenectomy and the spleen so obtained was untangled into its cells. To 5×10^7 cells/ml of the spleen cells so obtained, DNP-BSA (5 μg/ml) was added, followed by incubation at 37° C. for 24 hours. After incubation, 100 μl of the supernatant were collected and subjected to the measurement an IgE measuring kit (Yamasa Co., Ltd.). In order to determine IgG1, IgG2a and IgM, the absorbance of the incubated supernatant was measured by the EIA method and provided for comparison. The inhibition rate of IgE production was calculated according to the below-described formula. Inhibition rates of the IgG1, IgG2a and IgM production were similarly calculated, respectively. [formula]

IgM production = assay: Test 4 (comparison): inhibition of IgM production; format: in vivo, Balb/c mouse; conditions: 100 mg/kg orally once a day; for inhibition at 100 mg/kg: Mus musculus, po, Day 1 to Day 10, spleen cells, DNP-BSA 5 μg/ml, 24 hours, read-out: Inhibition rate of IgM production
Procedure: as §1, §2

IgG1 production = assay: Test 4 (comparison): inhibition of IgG1 production; format: in vivo, Balb/c mouse; conditions: 100 mg/kg orally once a day; for inhibition at 100 mg/kg: Mus musculus, po, Day 1 to Day 10, spleen cells, DNP-BSA 5 μg/ml, 24 hours, read-out: Inhibition rate of IgG1 production
Procedure: as §1, §2

IgG2a production = assay: Test 4 (comparison): inhibition of IgG2a production; format: in vivo, Balb/c mouse; conditions: 100 mg/kg orally once a day; for inhibition at 100 mg/kg: Mus musculus, po, Day 1 to Day 10, spleen cells, DNP-BSA 5 μg/ml, 24 hours, read-out: Inhibition rate of IgG2a production
Procedure: as §1, §2

SMILES	inhibition at 10 µM (IL-4 production)	inhibition at 1 µM (IL-4 production)	inhibition at 0.1 µM (IL-4 production)	inhibition at 0.01 µM (IL-4 production)	inhibition at 1 µM (IL-5 production)	inhibition at 100 mg/kg (IgE production)	inhibition at 100 mg/kg (IgM production)	effects on the production of IgM (IgM production; in words)	inhibition at 100 mg/kg (IgG1 production)	effects on the production of IgG1 (IgG1 production; in words)	inhibition at 100 mg/kg (IgG2a production)	effects on the production of IgG2a (IgG2a production; in words)
CCOC(=O)CCCCCCCOc1cc(/C=C/C(=O)c2ccccc2OC)ncc1OC [Ex. 98, Ethyl 8-[5-methoxy-2-(3-(2-methoxyphenyl)-3-oxo-1-propenyl)-4-pyridyloxy]octanoate hydrochloride]	100%	85.6%	76.1%	75.7%	96.8%	50.1%	-2.6%	No effects were observed	5.4%	No effects were observed	-4.1%	No effects were observed
COc1cnc(/C=C/C(=O)C2CCCCC2)cc1OCCCC(=O)O [Ex. 106, 4-[2-(3-Cyclohexyl-3-oxo-1-propenyl)-5-methoxy-4-pyridyloxy]butanoic acid]	75.6%	31.7%	9.4%	8.6%	78.7%	28.8%	-7.3%		-0.8%		2.1%	
